# “Also recorded” adds a separate entry of the source.
# Assays:
# [1] = system: human CD4^+ T cells; experiment: proliferation of T cells in response to TCR stimulation in vitro; format: cell-based; conditions: listed as KD025
# [2] = system: STAT3; experiment: STAT3 phosphorylation in T cells; format: cell-based, human
# [3] = system: CD4^+ T cells from RA patients; experiment: cytokine secretion ex vivo by CD3/CD28 stimulated CD4+ T cells from RA patients; format: cell-based, human; conditions: listed as KD025
# [4] = system: TGF-β-induced STAT3, MLC and SMAD2/3 phosphorylation; experiment: TGF-β-induced phosphorylation of STAT3, MLC and SMAD2/3 in Tregs; format: cell-based
# [5] = system: PBMCs; experiment: ex vivo anti-CD3/CD28 stimulated cytokine production in PBMCs isolated from treated patients; parameters: species or system human; conditions: 120 mg/day, days 1 and 8-14
compound,measurement,setting,value
CC(C)NC(=O)COc1cccc(-c2nc(Nc3ccc4[nH]ncc4c3)c3ccccc3n2)c1 [SLx-2119],proliferation in response to TCR stimulation,[1],inhibits; also recorded: down-regulated their ability to proliferate
same,STAT3 phosphorylation,"[2]; Th17-skewing conditions 5 days, then treated 3 hours",STAT3 phosphorylation was reduced
same,phosphorylation of STAT3,"[2]; pre-treatment, then anti-CD3/CD28 stimulation",reduced phosphorylation of STAT3
same,"phosphorylation of STAT3, IFR4 and RORγT",[2]; separate experiment (FIG. 9C),reduced phosphorylation
same,phosphorylation of STAT3,"[2]; two different experimental designs, listed as KD025",inhibits STAT3 phosphorylation; also recorded: significantly down-regulates
same,secretion of IFN-γ,[3],inhibits; also recorded: significantly down-regulated
same,secretion of IL-17,[3],inhibits; also recorded: significantly down-regulated
same,secretion of IL-21,[3],inhibits; also recorded: significantly down-regulated
same,TGF-β-induced STAT3 and MLC phosphorylation,[4],down-regulates
same,induction of IL-17 secretion in PBMCs,[5],significantly inhibited in PBMCs isolated from four of five patients
same,induction of IL-21 secretion in PBMCs,[5],significantly inhibited in PBMCs from all five patients

# — patent US10696660B2, “Rho kinase inhibitors” (priority 2012, dated 2020)
